Results on two compounds are retold here after patent US6723680B2, “Composition for regulation of gametophytic self-incompatibility, control method of gametophytic self-incompatibility of a plant and the plant self-pollinated by using said control method” (Istech Co., Ltd., priority 2000, dated 2004).

For assay [1], the system named is pollen tube of Fuji apple. Briefly: Pollen tube elongation of self-pollen in medium with style-specific RNase and inhibitor. The following applies: 10 units S1 RNase in medium. The format is cell-based. Here is the method:
To investigate the effect of the style-specific S1 RNase purified in the example 1-4 on pollen tube elongation of self-pollen, experiment was conducted as follows. First of all, only the self-pollen made from a stamen of Fuji apple was isolated. The isolated pollen was cultured in the medium for pollen tube elongation, which was added with 0, 2, 4 and 6 units (mg^−1min^−1ml) of S1 RNase purified in the example 1-4, respectively, in a dark condition for 24 hours at 28° C. The medium for pollen tube elongation is composed of 20 mM Mes-KOH (pH 6.0), 0.07% Ca(NO3)2·4H2O, 0.02% MgSO4·7H2O, 0.01% KNO3, 0.01% H3BO3 and 2% sucrose, and elongates pollen tube artificially.
10 units (mg^−1min^−1ml^−1) of the style-specific S1 RNase was added to the medium for pollen tube elongation, and ZnSO4 and CuSO4 were added thereto at 1 mM, 2 mM and 5 mM respectively. And then, pollen tube was cultured according to the same method as the Example 2.

For assay [2], the system named is Fuji apple. Description: Fruition rate of Fuji apple according to blooming period of treatment. Type of assay: in vivo. The following applies: 1 mM with siloxane spreader 0.0335%. The method, then:
To test the effect of a style-specific RNase inhibitor of the present invention in a practical cultivating environment, the style-specific RNase of the present invention was treated to Fuji apple that was cultivated in a greenhouse for research (located in Cheongsong-gun, Kyungsangpukdo, Republic of Korea). In the present invention, the experiment was performed under the environmental condition that can keep the Fuji apple, a representative plant having gametophytic self-incompatibility, a single species genetically. To determine the treatment period of a style-specific RNase inhibitor, the inhibitor was treated at the early blooming period (budding formation period˜prior to full blooming), the middle blooming period (full blooming) and the late blooming period (1 day after full blooming˜falling period of petal) respectively. A composition, which was manufactured by mixing the spreader of siloxane class (brand name: silhouette, Dongbu precision chemical company, Korea) with the inhibitor to the concentration of 0.0335%, was treated under the same condition of the Example 5-1, and the results were shown in Table 5.

With `O=S(=O)([O-])[O-].[Zn+2]` [ZnSO4], the “elongation of pollen tube” value in assay [1] (1 mM inhibitor) and in assay [1] (2 mM inhibitor) was “elongated again” throughout. The Fruition rate was 0 in assay [2] (1 day after full blooming); 0 in assay [2] (1 day before blooming); 0 in assay [2] (2 days after full blooming); >32% in assay [2] (2 days before blooming); >71% in assay [2] (3 days before blooming); >93% in assay [2] (4 days before blooming). Besides, the Fruition rate is on record as >92% in assay [2] (5 days before blooming) and 0 in assay [2] (full blooming).

In the case of `O=S(=O)([O-])[O-].[Cu+2]` [CuSO4], the “elongation of pollen tube” value in assay [1] (1 mM inhibitor) was “elongated again”. The Fruition rate in assay [2] (1 day after full blooming) is recorded as 0; in assay [2] (1 day before blooming), 0; in assay [2] (2 days after full blooming) it was 0; in assay [2] (2 days before blooming) it was >24%; in assay [2] (3 days before blooming) it was >70%; in assay [2] (4 days before blooming), >86%. Also, the Fruition rate in assay [2] (5 days before blooming) is recorded as >91%; in assay [2] (full blooming), 0.
